The values below come from ChEMBL document CHEMBL4251646, “Improved antibacterial activity of a marine peptide-N2 against intracellular Salmonella typhimurium by conjugating with cell-penetrating peptides-bLFcin6/Tat11” (Eur J Med Chem, 2018).

Molecules are shown by their SMILES. Values after ≈ are worked out from the molar mass of the structure shown.

Series [1] concerns Salmonella typhimurium. As to the kind of experiment: Antibacterial activity against Salmonella typhimurium ATCC 14028 at pH 7 after 16 to 18 hrs by broth microdilution method. It is filed as functional, Salmonella enterica subsp. enterica serovar Typhimurium. Particulars: Salmonella enterica.
For series [2], the system named is Salmonella typhimurium. Put plainly: Antibacterial activity against Salmonella typhimurium ATCC 14028 at pH 5 after 16 to 18 hrs by broth microdilution method. In kind it is functional, Salmonella enterica subsp. enterica serovar Typhimurium. Particulars: Salmonella enterica. In general terms: Dilution methods test growth across graded concentrations, often in twofold steps.

Series [3] has as its system Salmonella typhimurium. As to the kind of experiment: Antibacterial activity against Salmonella typhimurium ATCC 14028 assessed as survival at 10 uM after 3 hrs by broth microdilution method. It is filed as functional, Salmonella enterica subsp. enterica serovar Typhimurium.
Series [4] has as its system Salmonella typhimurium. Put plainly: Bactericidal activity against Salmonella typhimurium ATCC 14028 at 10 uM within 3 to 9 hrs. In kind it is functional, Salmonella enterica subsp. enterica serovar Typhimurium.
Series [5] deals with Salmonella typhimurium. As to the kind of experiment: Bactericidal activity against Salmonella typhimurium ATCC 14028 infected in mouse RAW264.7 cells assessed as log reduction in intracellular bacterial load at 50 uM within 3 to 9 hrs in presence of gentamycin. In kind it is functional, Salmonella enterica subsp. enterica serovar Typhimurium.
Series [6] relates to Salmonella typhimurium. Put plainly: Bactericidal activity against Salmonella typhimurium ATCC 14028 infected in mouse RAW264.7 cells assessed as log reduction in intracellular bacterial load at 100 uM within 3 to 9 hrs in presence of gentamycin. In kind it is functional, Salmonella enterica subsp. enterica serovar Typhimurium.
In series [7] the test system is Salmonella typhimurium. As to the kind of experiment: Bactericidal activity against Salmonella typhimurium ATCC 14028 infected in mouse RAW264.7 cells assessed as log reduction in intracellular bacterial load at 10 uM after 10 hrs in presence of gentamycin. It is filed as functional, Salmonella enterica subsp. enterica serovar Typhimurium.
The test system of series [8] is Salmonella typhimurium. Put plainly: Bactericidal activity against Salmonella typhimurium ATCC 14028 infected in mouse RAW264.7 cells assessed as log reduction in intracellular bacterial load at 20 uM within 3 to 9 hrs in presence of gentamycin. In kind it is functional, Salmonella enterica subsp. enterica serovar Typhimurium.
Series [9] can be described thus: Cytotoxicity against mouse RAW264.7 cells assessed as cell survival at 100 uM after 8 hrs by MTT assay. It is filed as cell-based. Particulars: read-out: Survival. (Tetrazolium assays rely on reduction of a dye to a coloured formazan, in cell work by metabolically active cells.)
Series [10] is described as follows: Drug internalization in mouse RAW264.7 cells at 1 uM using FITC-labeled test compound after 0.5 hrs by flow cytometry. In kind it is ADME, cell-based. Particulars: raw264.7, 0.5 h.
Series [11] is described as follows: Drug uptake in mouse RAW264.7 cells at 5 uM using FITC-labeled test compound after 5 hrs by Hoechst 33342/FM 4-64 staining-based confocal microscopic analysis. Particulars: raw264.7, 5 h. It is filed as ADME, cell-based.
Series [12] is described as follows: Drug internalization in mouse RAW264.7 cells at 1 uM using FITC-labeled test compound after 2 hrs by flow cytometry. It is filed as ADME, cell-based. Particulars: raw264.7, 2 h. On the technique in general: A flow cytometer gives signals particle by particle.
Series [13] in a line: Drug internalization in mouse RAW264.7 cells using FITC-labeled test compound by flow cytometry. In kind it is ADME, cell-based.
The nature of series [14]: Drug uptake in mouse RAW264.7 cells at 5 uM using FITC-labeled test compound after 0.5 hrs by flow cytometry. Particulars: raw264.7, 0.5 h. In kind it is ADME, cell-based.
A short description of series [15]: Drug uptake in mouse RAW264.7 cells at 5 uM using FITC-labeled test compound after 2 hrs by flow cytometry. In kind it is ADME, cell-based. Particulars: raw264.7, 2 h.

As a reminder, the MIC is the smallest concentration in the dilution series that meets the test's criterion for growth inhibition. Lower therefore signals greater potency. For the compound `CC(C)[C@@H]1NC(=O)[C@H](C)NC(=O)[C@H](CC(N)=O)NC(=O)[C@H](CCCNC(=N)N)NC(=O)[C@H](Cc2ccc(O)cc2)NC(=O)[C@H](C(C)C)NC(=O)[C@@H]2CSSC[C@H](NC(=O)[C@H](C(C)C)NC(=O)[C@H](CCCNC(=N)N)NC1=O)C(=O)N[C@@H](Cc1cnc[nH]1)C(=O)N[C@@H](CCCNC(=N)N)C(=O)N[C@@H](CCCNC(=N)N)C(=O)N[C@H](C(=O)N[C@@H](CC(N)=O)C(=O)O)CSSC[C@H](NC(=O)[C@H](Cc1ccccc1)NC(=O)[C@H](C)NC(=O)[C@H](CCCNC(=N)N)NC(=O)[C@H](Cc1c[nH]c3ccccc13)NC(=O)[C@H](CCC(N)=O)NC(=O)[C@H](Cc1c[nH]c3ccccc13)NC(=O)[C@H](CCCNC(=N)N)NC(=O)[C@@H](N)CCCNC(=N)N)C(=O)N[C@@H](Cc1c[nH]c3ccccc13)C(=O)N[C@@H](CC(N)=O)C(=O)N[C@@H](C(C)C)C(=O)N2`, the figures for the MIC in the series on Salmonella typhimurium [1] and in the series with Salmonella typhimurium [2] were 2.25 µM (≈ 7.95 µg/mL) and 9 µM (≈ 31.8 µg/mL), respectively. In the series on Salmonella typhimurium [3], the Survival is on record as 1.9 ×10⁵ CFU/ml. The Activity in the series with Salmonella typhimurium [4] is 34.22 - 91.35%. The figures for the “log(activity)” value in the series on Salmonella typhimurium [5] and with Salmonella typhimurium [6] were 1.63 and 2.1, respectively.
Turning to `CC(C)[C@@H]1NC(=O)[C@H](C)NC(=O)[C@H](CC(N)=O)NC(=O)[C@H](CCCNC(=N)N)NC(=O)[C@H](Cc2ccc(O)cc2)NC(=O)[C@H](C(C)C)NC(=O)[C@@H]2CSSC[C@H](NC(=O)[C@H](C(C)C)NC(=O)[C@H](CCCNC(=N)N)NC1=O)C(=O)N[C@@H](Cc1cnc[nH]1)C(=O)N[C@@H](CCCNC(=N)N)C(=O)N[C@@H](CCCNC(=N)N)C(=O)N[C@H](C(=O)N[C@@H](CC(N)=O)C(=O)O)CSSC[C@H](NC(=O)[C@H](Cc1ccccc1)NC(=O)[C@H](C)NC(=O)[C@H](CCCNC(=N)N)NC(=O)[C@H](CCCNC(=N)N)NC(=O)[C@H](CCCNC(=N)N)NC(=O)[C@H](CCC(N)=O)NC(=O)[C@H](CCCNC(=N)N)NC(=O)[C@H](CCCNC(=N)N)NC(=O)[C@H](CCCCN)NC(=O)[C@H](CCCCN)NC(=O)[C@H](CCCNC(=N)N)NC(=O)CNC(=O)[C@@H](N)Cc1ccc(O)cc1)C(=O)N[C@@H](Cc1c[nH]c3ccccc13)C(=O)N[C@@H](CC(N)=O)C(=O)N[C@@H](C(C)C)C(=O)N2`, the MIC in the series with Salmonella typhimurium [1] was 1.94 µM (≈ 7.97 µg/mL); with Salmonella typhimurium [2], 3.89 µM (≈ 16 µg/mL). Also, the Survival in the series with Salmonella typhimurium [3] came out at 1.5 ×10⁵ CFU/ml. Besides, in the series on Salmonella typhimurium [4], the Activity is listed as 48.28 - 98.85%. For the same compound, the “log(activity)” value in the series with Salmonella typhimurium [7] is given as 1.19; in the series with Salmonella typhimurium [8] it was 1.57; with Salmonella typhimurium [5], 3.26.
For the compound `CC(C)[C@@H]1NC(=O)[C@H](C)NC(=O)[C@H](CC(N)=O)NC(=O)[C@H](CCCNC(=N)N)NC(=O)[C@H](Cc2ccc(O)cc2)NC(=O)[C@H](C(C)C)NC(=O)[C@@H]2CSSC[C@H](NC(=O)[C@H](C(C)C)NC(=O)[C@H](CCCNC(=N)N)NC1=O)C(=O)N[C@@H](Cc1c[nH]cn1)C(=O)N[C@@H](CCCNC(=N)N)C(=O)N[C@@H](CCCNC(=N)N)C(=O)N[C@H](C(=O)N[C@@H](CC(N)=O)C(=O)O)CSSC[C@H](NC(=O)[C@H](Cc1ccccc1)NC(=O)[C@H](C)N)C(=O)N[C@@H](Cc1c[nH]c3ccccc13)C(=O)N[C@@H](CC(N)=O)C(=O)N[C@@H](C(C)C)C(=O)N2`, in [9], the viability at 8 h, 100 µM amounted to 103%. The Drug uptake is 17.3% in [10]; “Not Active” in series [11]; 31.4% in series [12]; “Dose-dependent effect and Tde” in series [13]; 50% in series [14]; 93.4% in series [15].
